Results as given in US12590106B2, “Spiromacrocyclic orexin 2 receptor agonists” (H. Lundbeck A/S, priority 2023, dated 2026).

Biological target: T1, human Ox2R (Homo sapiens, UniProt O43614)
T1 construct: The gene encoding hOx2R was subcloned into the expression plasmid pcDNA5/FRT/TO; expressed in transfected cells; host or cells: CHO Flp-In cells (pcDNA5/FRT/TO with pOG44 Flp recombinase vector, hygromycin B selection)
T1 sequence (O43614 1-444): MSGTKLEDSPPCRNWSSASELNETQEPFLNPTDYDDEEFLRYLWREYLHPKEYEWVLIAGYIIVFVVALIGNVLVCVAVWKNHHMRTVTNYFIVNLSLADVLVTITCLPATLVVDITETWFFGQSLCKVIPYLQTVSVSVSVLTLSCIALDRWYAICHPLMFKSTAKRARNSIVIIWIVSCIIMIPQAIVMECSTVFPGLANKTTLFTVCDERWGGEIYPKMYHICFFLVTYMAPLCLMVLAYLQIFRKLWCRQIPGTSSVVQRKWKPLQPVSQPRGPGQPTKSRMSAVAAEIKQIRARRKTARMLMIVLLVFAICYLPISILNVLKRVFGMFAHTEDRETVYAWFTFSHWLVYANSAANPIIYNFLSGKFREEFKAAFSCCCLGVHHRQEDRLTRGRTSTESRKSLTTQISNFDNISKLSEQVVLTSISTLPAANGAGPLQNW
Test: Measurement of OX2R agonist activity (cell-based calcium release assay)
Settings: hOx2R-CHO Flp-In cells, n≥2 tests; for EC50: intracellular calcium, read-out: EC50; for Emax: read-out: Emax (%)
Method in brief: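 CHO Flp-In cells stably expressing human Ox2R, dye-loaded 1 h at 37 °C in HBSS/20 mM HEPES pH 7.4 with 2.5 mM probenecid and 10 mM CaCl2, then stimulated with compound.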

[1] = normalized to assay buffer (0%) and 10 μM Danavorexton (100%)

SMILES | EC50 [nM] | Emax [1] [%] | Emax (%) [1] [%]
CS(=O)(=O)N[C@H]1CC[C@@]2(Cc3ccc(Cl)c(c3)-c3cc(F)cc(F)c3OCc3coc2n3)C1 [Example 76, N-[(1′S,14R)-19-chloro-4,6-difluoro-spiro[8,12-dioxa-21-azatetracyclo[14.3.1.110,13.02,7]henicosa-1(19),2,4,6,10,13(21),16(20),17-octaene-14,3′-cyclopentane]-1′-yl]methanesulfonamide] | 0.26 | 99 | –
CS(=O)(=O)N[C@H]1CC[C@@]2(Cc3ccc(F)c(c3)-c3cccc(Cl)c3OCc3coc2n3)C1 [Example 20, N-[(1′S,14R)-6-chloro-19-fluoro-spiro[8,12-dioxa-21-azatetracyclo[14.3.1.110,13.02,7]henicosa-1(19),2,4,6,10,13(21),16(20),17-octaene-14,3′-cyclopentane]-1′-yl]methanesulfonamide] | 0.33 | 97 | –
CS(=O)(=O)N[C@H]1CC[C@@]2(COCCc3cccc(c3)OCc3coc2n3)C1 [Example 40, N-[(1′S,8S)-spiro[2,6,10-trioxa-18-azatricyclo[11.3.1.14,7]octadeca-1(17),4,7(18),13,15-pentaene-8,3′-cyclopentane]-1′-yl]methanesulfonamide] | 1700 | 94 | –
CS(=O)(=O)N[C@H]1CC[C@@]2(CO[C@H]3CC[C@H](CC3)c3cccc(c3)OCCc3coc2n3)C1 [Example 70, N-[(1s,1′S,14R,17s)-spiro[7,12,16-trioxa-22-azatetracyclo[15.2.2.12,6.110,13]tricosa-2,4,6(23),10,13(22)-pentaene-14,3′-cyclopentane]-1′-yl]methanesulfonamide] | 1.8 | 98 | –
CS(=O)(=O)N[C@H]1CC[C@@]2(Cc3cccc(c3)-c3cccnc3NCc3coc2n3)C1 [Example 74, N-[(1′S,14R)-spiro[12-oxa-6,8,21-triazatetracyclo[14.3.1.110,13.02,7]henicosa-1(20),2,4,6,10,13(21),16,18-octaene-14,3′-cyclopentane]-1′-yl]methanesulfonamide] | 92 | 100 | –
Cc1oc2nc1COc1ccccc1-c1cc(ccc1F)C[C@@]21CC[C@H](NS(C)(=O)=O)C1 [Example 26, N-[(1′S,14R)-19-fluoro-11-methyl-spiro[8,12-dioxa-21-azatetracyclo[14.3.1.110,13.02,7]henicosa-1(19),2,4,6,10,13(21),16(20),17-octaene-14,3′-cyclopentane]-1′-yl]methanesulfonamide] | 0.19 | 95 | –
CS(=O)(=O)N[C@H]1CC[C@@]2(CO[C@H]3CC[C@H](CC3)c3ccccc3OCc3nc2no3)C1 [Example 65, N-[(1s,1′S,14R,17s)-spiro[8,11,16-trioxa-12,22-diazatetracyclo[15.2.2.110,13.02,7]docosa-2,4,6,10(22),12-pentaene-14,3′-cyclopentane]-1′-yl]methanesulfonamide] | 45 | 99 | –
C[C@H]1Oc2c(F)cccc2-c2cc(ccc2F)C[C@@]2(CC[C@H](NS(C)(=O)=O)C2)c2nc1co2 [Example 85, N-[(1′S,9R,14R)-6,19-difluoro-9-methyl-spiro[8,12-dioxa-21-azatetracyclo[14.3.1.110,13.02,7]henicosa-1(19),2(7),3,5,10,13(21),16(20),17-octaene-14,3′-cyclopentane]-1′-yl]methanesulfonamide] | 2.3 | 100 | –
C[C@H]1C[C@H](NS(C)(=O)=O)C[C@]12Cc1ccc(F)c(c1)-c1cccc(F)c1OCc1coc2n1 [Example 60, N-[(1′S,4′S,14R)-6,19-difluoro-4′-methyl-spiro[8,12-dioxa-21-azatetracyclo[14.3.1.110,13.02,7]henicosa-1(19),2,4,6,10,13(21),16(20),17-octaene-14,3′-cyclopentane]-1′-yl]methanesulfonamide or N-[(1′R,4′R,14S)-6,19-difluoro-4′-methyl-spiro[8,12-dioxa-21-azatetracyclo[14.3.1.110,13.02,7]henicosa-1(19),2,4,6,10,13(21),16(20),17-octaene-14,3′-cyclopentane]-1′-yl]methanesulfonamide] | 0.33 | – | 100
CS(=O)(=O)N[C@H]1CC[C@@]2(Cc3cccc(c3)-c3cccnc3OCc3coc2n3)C1 [Example 9, N-[(1′S,14R)-spiro[8,12-dioxa-6,21-diazatetracyclo[14.3.1.110,13.02,7]henicosa-1(20),2,4,6,10,13(21),16,18-octaene-14,3′-cyclopentane]-1′-yl]methanesulfonamide] | 10 | 98 | –
CS(=O)(=O)N[C@H]1CC[C@@]2(Cc3cc(ccc3F)-c3cccc(Cl)c3OCc3coc2n3)C1 [Example 29, N-[(1′S,14R)-6-chloro-17-fluoro-spiro[8,12-dioxa-21-azatetracyclo[14.3.1.110,13.02,7]henicosa-1(19),2,4,6,10,13(21),16(20),17-octaene-14,3′-cyclopentane]-1′-yl]methanesulfonamide] | 2 | 98 | –
CC1Oc2ccccc2-c2cccc(c2)C[C@@]2(CC[C@H](NS(C)(=O)=O)C2)c2nccc1n2 (single isomer, unassigned) [Example 88, N-[(1′S,9R*,15R)-9-methylspiro[8-oxa-13,22-diazatetracyclo[15.3.1.110,14.02,7]docosa-1(21),2,4,6,10,12,14(22),17,19-nonaene-15,3′-cyclopentane]-1′-yl]methanesulfonamide] | 1600 | 88 | –
C[C@@H]1Oc2c(F)cccc2-c2cc(ccc2F)C[C@@]2(CC[C@H](NS(C)(=O)=O)C2)c2nc1co2 [Example 3, N-[(1′S,9S,14R)-6,19-difluoro-9-methyl-spiro[8,12-dioxa-21-azatetracyclo[14.3.1.110,13.02,7]henicosa-1(19),2(7),3,5,10,13(21),16(20),17-octaene-14,3′-cyclopentane]-1′-yl]methanesulfonamide] | 0.97 | 99 | –
O=S(=O)(N[C@H]1CC[C@@]2(Cc3ccc(F)c(c3)-c3cccc(F)c3OCc3coc2n3)C1)C(F)(F)F [Example 114, N-[(1′S,14R)-6,19-difluorospiro[8,12-dioxa-21-azatetracyclo[14.3.1.110,13.02,7]henicosa-1(19),2(7),3,5,10,13(21),16(20),17-octaene-14,3′-cyclopentane]-1′-yl]-1,1,1-trifluoro-methanesulfonamide] | 0.19 | 110 | –
CS(=O)(=O)N[C@H]1CC[C@@]2(Cc3ccc(Cl)c(c3)-c3ccc(F)c(F)c3OCc3coc2n3)C1 [Example 31, N-[(1′S,14R)-19-chloro-5,6-difluoro-spiro[8,12-dioxa-21-azatetracyclo[14.3.1.110,13.02,7]henicosa-1(19),2,4,6,10,13(21),16(20),17-octaene-14,3′-cyclopentane]-1′-yl]methanesulfonamide] | 0.48 | 96 | –
CS(=O)(=O)N[C@H]1CC[C@@]2(Cc3cc(c(F)cc3F)-c3cccc(F)c3OCc3cc(=O)[nH]c2n3)C1 [Example 101, N-[(1′S,15R)-6,18,20-trifluoro-12-oxo-spiro[8-oxa-13,22-diazatetracyclo[15.3.1.110,14.02,7]docosa-1(20),2(7),3,5,10,14(22),17(21),18-octaene-15,3′-cyclopentane]-1′-yl]methanesulfonamide] | 0.67 | 96 | –
O=S(=O)(N[C@H]1CC[C@@]2(Cc3ccc(F)c(c3)-c3ccc(F)c(F)c3OCc3coc2n3)C1)C1CC1 [Example 34, N-[(1′S,14R)-5,6,19-trifluorospiro[8,12-dioxa-21-azatetracyclo[14.3.1.110,13.02,7]henicosa-1(19),2,4,6,10,13(21),16(20),17-octaene-14,3′-cyclopentane]-1′-yl]cyclopropanesulfonamide] | 0.8 | 98 | –
CS(=O)(=O)N[C@H]1C[C@@]2(Cc3ccc(F)c(c3)-c3cccc(F)c3OCc3coc2n3)C1 [Example 98, trans-N-(6,19-difluorospiro[8,12-dioxa-21-azatetracyclo[14.3.1.110,13.02,7]henicosa-1(20),2,4,6,10,13(21),16,18-octaene-14,3′-cyclobutane]-1′-yl)methanesulfonamide] | 0.87 | 99 | –
CS(=O)(=O)N[C@H]1CC[C@@]2(Cc3ccc(F)c(c3)-c3ccc(F)cc3OCc3ccnc2n3)C1 [Example 92, N-[(1′S,15R)-5,20-difluorospiro[8-oxa-13,22-diazatetracyclo[15.3.1.110,14.02,7]docosa-1(20),2,4,6,10,12,14(22),17(21),18-nonaene-15,3′-cyclopentane]-1′-yl]methanesulfonamide] | 16 | 110 | –
Cc1oc2nc1COc1ccccc1-c1cccc(c1)C[C@@]21CC[C@H](NS(C)(=O)=O)C1 [Example 68, N-[(1′S,14R)-11-methylspiro[8,12-dioxa-21-azatetracyclo[14.3.1.110,13.02,7]henicosa-1(19),2,4,6,10,13(21),16(20),17-octaene-14,3′-cyclopentane]-1′-yl]methanesulfonamide] | 1.5 | 98 | –
